Drawing on patent publication US20210040118A1, “IMMUNOMODULATORS, COMPOSITIONS AND METHODS THEREOF” (BETTA PHARMACEUTICALS CO., LTD, priority 2018, published 2021), this text covers IC50 for 13 compounds.

This assay deals with T1, PD-1/PD-L1 (Homo sapiens, UniProt Q9NZQ7).
T1 construct: Recombinant human PD-L1 protein (19-238) with a His-tag at the C-terminus; purchased AcroBiosystems PD1-H5229 (PD-L1); PD1-H5257 (PD-1)
The experiment in a line: PD-1/PD-L1 homogenous time-resolved fluorescence (HTRF) binding assay. The following applies: recombinant human PD-L1 (19-238) His-tag / human PD-1 (25-167) Fc tag. A digest of the protocol:
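HTRF binding of human PD-1 (25-167, Fc-tagged) at 3 nM and PD-L1 (19-238, His-tagged) at 10 nM, preincubated 40 min with inhibitor in PBS pH 7.4, 0.05% Tween-20, 0.1% BSA, 1% DMSO, 25°C. Eu anti-IgG (1 nM) and anti-His-APC (20 nM) added, 60 min; 665/620 nm ratio; IC50 from curve fit.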
A general note: Time-resolved FRET reads energy transfer from a long-lived donor to a nearby acceptor.

Each structure is given as a SMILES string.

T1 sequence (Q9NZQ7 19-238): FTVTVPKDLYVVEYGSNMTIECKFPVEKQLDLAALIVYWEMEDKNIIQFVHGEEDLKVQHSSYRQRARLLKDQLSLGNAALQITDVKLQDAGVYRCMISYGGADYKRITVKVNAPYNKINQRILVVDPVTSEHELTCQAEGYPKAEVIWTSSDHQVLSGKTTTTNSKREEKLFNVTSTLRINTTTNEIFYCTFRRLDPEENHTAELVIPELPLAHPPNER

Consider `CNC(=O)CN1CCc2nc(C(=O)N3CCc4c(-c5cccc6c5CCN6C(=O)c5nc6c(s5)CN(CC(=O)O)CC6)cccc43)sc2C1` [Example 108, 2-(2-(1′-(5-(2-(methylamino)-2-oxoethyl)-4,5,6,7-tetrahydrothiazolo[5,4-c]pyridine-2-carbonyl)-[4,4′-biindoline]-1-carbonyl)-6,7-dihydrothiazolo[5,4-c]pyridin-5(4H)-yl)acetic acid], for which the IC50 (class symbols) is below 25 nM.

With `Cc1c(NC(=O)c2nnc(CN)o2)cccc1-c1cccc(NC(=O)c2nnc(CN)o2)c1C` [Example 18, N,N′-(2,2′-dimethyl-[1,1′-biphenyl]-3,3′-diyl)bis(5-(aminomethyl)-1,3,4-oxadiazole-2-carboxamide)], the IC50 (class symbols) lay within 25 to 100 nM.

In the case of `Cc1c(NC(=O)c2nc3c(s2)CN(CC#N)CC3)cccc1-c1cccc(NC(=O)c2nc3c(s2)CN(CC#N)CC3)c1C` [Example 80, N,N′-(2,2′-dimethyl-[1,1′-biphenyl]-3,3′-diyl)bis(5-(cyanomethyl)-4,5,6,7-tetrahydrothiazolo[5,4-c]pyridine-2-carboxamide)], for the setting “class symbols”, the IC50 was below 25 nM.

As for `CCOC(=O)CN1CCc2nc(C(=O)Nc3cccc(-c4cccc(NC(=O)c5ccc6c(n5)CCNC6)c4C)c3C)ccc2C1` [Example 170, ethyl 2-(2-((2,2′-dimethyl-3′-(5,6,7,8-tetrahydro-1,6-naphthyridine-2-carboxamido)-[1,1′-biphenyl]-3-yl)carbamoyl)-7,8-dihydro-1,6-naphthyridin-6(5H)-yl)acetate], the IC50 (class symbols) is below 25 nM.

Regarding `Cc1nc(C(=O)Nc2cccc(-c3cccc4c3CCN4C(=O)c3nc(C)c(CN[C@H](C(=O)O)C4CCOCC4)s3)c2C)sc1CN[C@H](C(=O)O)C1CCOCC1` [Example 59, (S)-2-((2-(3-(1-(5-(((S)-carboxy(tetrahydro-2H-pyran-4-yl)methylamino)methyl)-4-methylthiazole-2-carbonyl)indolin-4-yl)-2-methylphenylcarbamoyl)-4-methylthiazol-5-yl)methylamino)-2-(tetrahydro-2H-pyran-4-yl)acetic acid], under “class symbols”, the IC50 is below 25 nM.

Take `Cc1c(NC(=O)c2nc3c(s2)CN(C)CC3)cccc1-c1cccc(NC(=O)c2nc3c(s2)CN(C)CC3)c1Cl` [Example 49, N,N′-(2-chloro-2′-methylbiphenyl-3,3′-diyl)bis(5-methyl-4,5,6,7-tetrahydrothiazolo[5,4-c]pyridine-2-carboxamide)]: the IC50 (class symbols) is below 25 nM.

For the compound `O=C(c1ncc(CNCCO)s1)N1CCc2c(-c3cccc4c3CCN4C(=O)c3nc4c(s3)CNCC4)cccc21` [Example 99, (5-(((2-hydroxyethyl)amino)methyl)thiazol-2-yl)(1′-(4,5,6,7-tetrahydrothiazolo[5,4-c]pyridine-2-carbonyl)-[4,4′-biindolin]-1-yl)methanone], under “class symbols”, the IC50 is below 25 nM.

Regarding `Cc1c(NC(=O)c2nnc([C@H](C)N)o2)cccc1-c1cccc(NC(=O)c2nnc([C@H](C)N)o2)c1C` [Example 9, N,N′-(2,2′-dimethyl-[1,1′-biphenyl]-3,3′-diyl)bis(5-((S)-1-aminoethyl)-1,3,4-oxadiazole-2-carboxamide)], under “class symbols”, the IC50 was below 25 nM.

For the compound `O=C(c1nc2c(s1)CNCC2)N1CCc2c(-c3cccc4c3CCN4C(=O)c3nc4c(s3)CNCC4)cccc21` [Example 33, [4,4′-biindoline]-1,1′-diylbis((4,5,6,7-tetrahydrothiazolo[5,4-c]pyridin-2-yl)methanone)], the IC50 (numeric values) was 0.21 nM.

`Cc1c(Nc2nccc3cc(CNCCO)cnc23)cccc1-c1cccc(Nc2nccc3cc(CNCC(=O)O)cnc23)c1C` [Example 139, ((8-((3′-((3-(((2-hydroxyethyl)amino)methyl)-1,7-naphthyridin-8-yl)amino)-2,2′-dimethyl-[1,1′-biphenyl]-3-yl)amino)-1,7-naphthyridin-3-yl)methyl)glycine]: the IC50 (class symbols) is below 25 nM.

For `Cc1c(Nc2nccc3cc(CN4CCCCC4C(=O)O)cnc23)cccc1-c1cccc(Nc2nccc3cc(CN4CCCCC4C(=O)O)cnc23)c1C` (stereo not shown) [Example 155, 1,1′-((((2,2′-dimethyl-[1,1′-biphenyl]-3,3′-diyl)bis(azanediyl))bis(1,7-naphthyridine-8,3-diyl))bis(methylene))bis(piperidine-2-carboxylic acid)], the IC50 (class symbols) is below 25 nM.

Turning to `CN(CCO)Cc1cnc(C(=O)N2CCc3c(-c4cccc5c4CCN5C(=O)c4ncc(CN(C)CCO)s4)cccc32)s1` [Example 116, [4,4′-biindoline]-1,1′-diylbis((5-(((2-hydroxyethyl)(methyl)amino)methyl)thiazol-2-yl)methanone)], for the setting “class symbols”, the IC50 is below 25 nM.

As to `O=C(Nc1cccc(-c2cccc(NC(=O)c3nc4c(s3)CN(C3COC3)CC4)c2Cl)c1Cl)c1nc2c(s1)CN(C1COC1)CC2` [Example 92, N,N′-(2,2′-dichloro-[1,1′-biphenyl]-3,3′-diyl)bis(5-(oxetan-3-yl)-4,5,6,7-tetrahydrothiazolo[5,4-c]pyridine-2-carboxamide)], the IC50 (class symbols) is below 25 nM.

One may read the IC50 as the concentration that inhibits the measured activity by half.
